Experimental data from article PMC7707092, “Discovery and characterization of ORM‐11372, a novel inhibitor of the sodium‐calcium exchanger with positive inotropic activity” (British Journal of Pharmacology, 2020).
Like-named read-outs stand apart in the source and are kept apart here.

Assays:
NCX = tested on: NCX; set-up: method as in Jost et al., 2013; Kohajda et al., 2016; conditions: Dog, reference not given, ref Jost et al., 2013, Kohajda et al., 2016, cited from earlier work
healthy rabbits = experiment: Haemodynamics in anaesthetized rabbits; assay type: in vivo, rabbit; set-up: cardiac relaxation / HR / systolic BP: dose or concentration left out as unconfirmed
Description: All animals were given multiple ascending infusion doses of ORM‐11372; blinding was not possible. Systemic BP (SP) and left ventricular pressure (LVP) values were measured with pressure transducers (SP for femoral artery: Isotec, Hugo Sachs Elektronic, Germany; a miniature pressure transducer Mikro‐Tip transducer SPR‐249, Millar Instruments was inserted into the left ventricle via the right carotid artery). The signal was amplified (DC‐bridge amplifier type 660, Hugo Sachs Elektronik, Germany), digitized (I/O connector block type SCB‐68, National Instruments, USA), recorded, and analysed (IHME 1.0.9, Fision Ltd, Finland). Left ventricular inotropic effect (LV + dP/dt max), relaxation (LV − dP/dt min), and HR values were analysed from LVP signals.
Male New Zealand white rabbits (Harlan, Netherlands B.V.) were housed individually in polycarbonate cages (Scanbur Number 8 plastic cages with stainless steel door) with aspen bedding (Aspen Bricks M, Tapvei Ky, Kaavi, Finland). The acclimation period before experiments was at least 21 days. Rabbits weighing 2.0–2.3 kg (age 10–12 weeks) were used for haemodynamically assessing ORM‐11372 (no randomization, baseline values as own control). The diet provided to rabbits was SDS Stanrab (P) SQC pelleted (Special Diet Services Ltd, Witham, England). Water was provided ad libitum in polycarbonate bottles (750 ml).
Rabbits (n = 5) were sedated with i.v. (marginal vein) diazepam (2 mg·kg^−1, Diapam®, Orion Pharma). Anaesthesia was induced with i.v. S‐ketamine (10–20 mg·kg^−1 Ketanest‐S®, Pfizer) and maintained with S‐ketamine i.v. infusion (15–80 mg·kg^−1·h^−1). Animals were placed on a heating table (+38°C), and tracheas were cannulated. Rabbits were ventilated via a rodent ventilator (Ugo Basile 7025, Hugo Sachs Elektronik, Germany; respiratory volume 10 ml·kg^−1, 30 strokes·min^−1 for rabbits). […]

5‐HT2B receptor = 5‐HT2B receptor (Homo sapiens, UniProt P41595); experiment: 5‐HT2B agonist and antagonist assay, intracellular calcium in CHO–5‐HT2B cells; assay type: cell-based
Chain of 5‐HT2B receptor (P41595 whole entry): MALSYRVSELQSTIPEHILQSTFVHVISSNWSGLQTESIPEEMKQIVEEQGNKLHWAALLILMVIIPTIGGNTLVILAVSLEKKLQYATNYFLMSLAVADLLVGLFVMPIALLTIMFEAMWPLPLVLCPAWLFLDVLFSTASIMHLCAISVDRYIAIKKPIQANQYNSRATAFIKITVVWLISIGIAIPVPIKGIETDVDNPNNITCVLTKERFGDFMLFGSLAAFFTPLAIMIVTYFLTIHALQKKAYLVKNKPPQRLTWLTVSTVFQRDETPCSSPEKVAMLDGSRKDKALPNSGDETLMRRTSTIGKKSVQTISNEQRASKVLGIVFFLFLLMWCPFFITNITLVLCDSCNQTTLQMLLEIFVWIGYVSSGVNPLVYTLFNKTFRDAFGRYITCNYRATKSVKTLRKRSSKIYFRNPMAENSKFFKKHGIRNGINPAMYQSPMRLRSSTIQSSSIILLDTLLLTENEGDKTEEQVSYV
Text: (§1) The hERG‐encoded voltage‐dependent potassium channel current (I hERG) cells to be studied were harvested with Detachin solution and either diluted with a volume of CHO cell serum‐free media (supplemented with 100 IU·ml^−1 of penicillin/streptomycin and 25‐mM HEPES) to obtain cells, for which the cell density was ~4 x10^6 cells·ml^−1, or plated on glass coverslips and used on the following 1–2 days. HEK 293 cells were transiently transfected using lipofectamine (Invitrogen, USA), with a human sodium voltage‐gated channel subunit 5 (hSCN5) A (transcript variant 2)‐containing plasmid, in Optimem medium. After a 5‐h incubation period, the transfection medium was replaced with the normal growth medium. The cells were harvested by trypsinization, centrifuged and resuspended in the appropriate extracellular solution for performing studies the next day. CHO–5‐HT2B cells were plated into 96‐well plates on the previous day, at a density of 4 x10^4 cells per well, with a modified version of the growth media.
Changes in the intracellular calcium concentration of CHO–5‐HT2B cells in the probenecid‐R inger were measured, using Fluo‐4 or calcium 3 dyes and the FLEXstation, at 37°C. […]

[1] = target: T1, human NaV1.5 channel current (I Na) (Homo sapiens, UniProt Q14524); experiment: NaV1.5 channel current (I Na), patch‐clamp in HEK cells; assay type: cell-based; conditions: room temperature
T1 construct: host or cells: HEK 293, transient (lipofectamine)
T1 sequence (Q14524 1-2015 isoform Q14524-2): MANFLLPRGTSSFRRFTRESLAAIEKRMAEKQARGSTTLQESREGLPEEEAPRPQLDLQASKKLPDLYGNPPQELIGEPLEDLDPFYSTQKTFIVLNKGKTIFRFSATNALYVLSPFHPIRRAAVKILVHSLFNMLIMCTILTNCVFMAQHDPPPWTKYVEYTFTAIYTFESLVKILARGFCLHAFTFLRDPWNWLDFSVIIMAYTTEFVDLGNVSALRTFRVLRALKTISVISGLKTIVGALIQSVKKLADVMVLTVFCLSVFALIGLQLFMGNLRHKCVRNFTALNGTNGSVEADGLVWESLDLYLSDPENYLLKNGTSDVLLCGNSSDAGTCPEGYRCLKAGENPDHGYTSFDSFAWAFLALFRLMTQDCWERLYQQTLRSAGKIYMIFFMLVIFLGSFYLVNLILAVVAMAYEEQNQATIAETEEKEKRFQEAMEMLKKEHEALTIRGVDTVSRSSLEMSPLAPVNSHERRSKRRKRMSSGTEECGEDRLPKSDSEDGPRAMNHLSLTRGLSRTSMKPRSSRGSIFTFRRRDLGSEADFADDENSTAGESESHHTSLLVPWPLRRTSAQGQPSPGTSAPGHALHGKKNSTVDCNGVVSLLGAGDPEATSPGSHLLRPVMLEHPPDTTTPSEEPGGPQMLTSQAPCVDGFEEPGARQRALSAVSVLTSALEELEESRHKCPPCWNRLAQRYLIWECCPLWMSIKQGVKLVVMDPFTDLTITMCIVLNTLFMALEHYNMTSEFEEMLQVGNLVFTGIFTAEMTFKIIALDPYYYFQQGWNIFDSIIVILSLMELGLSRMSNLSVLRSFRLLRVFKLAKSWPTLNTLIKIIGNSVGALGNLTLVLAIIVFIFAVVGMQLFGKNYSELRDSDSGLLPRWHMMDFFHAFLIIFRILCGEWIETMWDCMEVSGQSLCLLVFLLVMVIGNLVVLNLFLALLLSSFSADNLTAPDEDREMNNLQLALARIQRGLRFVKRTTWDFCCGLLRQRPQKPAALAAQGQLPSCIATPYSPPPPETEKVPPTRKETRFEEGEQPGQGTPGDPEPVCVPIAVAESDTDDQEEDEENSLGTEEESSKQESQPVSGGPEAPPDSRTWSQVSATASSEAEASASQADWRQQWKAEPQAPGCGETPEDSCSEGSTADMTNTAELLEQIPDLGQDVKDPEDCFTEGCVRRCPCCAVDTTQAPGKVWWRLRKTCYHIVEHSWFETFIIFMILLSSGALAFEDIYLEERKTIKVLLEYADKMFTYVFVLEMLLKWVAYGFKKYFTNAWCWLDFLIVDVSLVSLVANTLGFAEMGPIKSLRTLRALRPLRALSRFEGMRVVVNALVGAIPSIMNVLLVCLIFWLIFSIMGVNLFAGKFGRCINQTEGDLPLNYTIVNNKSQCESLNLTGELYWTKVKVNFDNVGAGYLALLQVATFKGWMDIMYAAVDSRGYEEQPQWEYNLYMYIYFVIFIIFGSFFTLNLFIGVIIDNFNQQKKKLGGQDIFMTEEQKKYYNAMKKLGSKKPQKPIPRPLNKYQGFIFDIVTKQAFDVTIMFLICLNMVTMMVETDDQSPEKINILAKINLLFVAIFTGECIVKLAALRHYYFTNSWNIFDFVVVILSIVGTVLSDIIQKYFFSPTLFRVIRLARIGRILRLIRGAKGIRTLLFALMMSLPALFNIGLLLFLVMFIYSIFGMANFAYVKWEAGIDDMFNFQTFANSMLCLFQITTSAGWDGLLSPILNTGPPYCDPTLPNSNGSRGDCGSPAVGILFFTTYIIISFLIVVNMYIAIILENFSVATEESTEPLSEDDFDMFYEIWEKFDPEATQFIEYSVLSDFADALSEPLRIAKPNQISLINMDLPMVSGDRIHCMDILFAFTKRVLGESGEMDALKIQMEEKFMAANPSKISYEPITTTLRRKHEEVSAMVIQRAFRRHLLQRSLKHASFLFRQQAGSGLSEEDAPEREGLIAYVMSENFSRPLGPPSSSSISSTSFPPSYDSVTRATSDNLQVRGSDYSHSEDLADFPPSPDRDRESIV
Text: as §1
Manual patch‐clamp recordings of membrane currents (I NCX, L‐type Ca^2+ channel current [I CaL], human cardiac sodium 1.5 current [I Na], and I hERG) were undertaken using either an Axopatch 200B or Axopatch ID amplifier (Molecular Devices, USA), using the whole‐cell configuration. […]

SMILES | IC50 (NCX; read-out: IC50 NCX forward) [nM] | IC50 (NCX; read-out: IC50 NCX reverse) [nM] | HR (healthy rabbits) | cardiac relaxation (healthy rabbits) | systolic BP (healthy rabbits) | increase in cardiac contractility (LV + dP/dt max) (healthy rabbits; infusion 833 μg·kg^−1·min^−1) [%] | agonist activity at 5‐HT2B receptors (5‐HT2B receptor) | inhibition at 10 µM (5‐HT2B receptor; 10 μM, evoked by 10‐nM 5‐HT, read-out: inhibition of 5‐HT2B receptor‐mediated increase in intracellular calcium) [%] | IC50 [1] [nM]
O=C(CN1CCC(O)CC1)Nc1ccc(Oc2ccc3c(c2)CCC(c2ccccc2)O3)nc1 (stereo not drawn) [ORM-10962] | 67 | 55 |  |  |  |  |  |  | 
Nc1cccc(-c2ccc(CNc3ccc(F)cc3)o2)c1 [ORM‐11372] |  |  | did not have any effects | did not have any effects | did not have any effects | 35 ± 8 | no agonist activity | 38 | 23200
